Assay results from patent US6903124B2, “Organic acid salt of amlodipine” (CJ Corp, priority 2002, dated 2005).

Key:
Format in all cases: physicochemical
[1] = Test for hygroscopicity: water content (K. F. water %) at 25° C. under various humidity conditions; conditions: for water content (K. F. water %): 25° C.
[2] = Chemical stability in solid state, accelerated test at 60° C., HPLC content
Procedure: (§1) HPLC Analysis Conditions: • Detector: UV Absorbance (at 237 nm) • Column: Octadesyl silica gel C18 (4.6 mm×150 mm, 5 μm) • Mobile Phase: Potassium dihydrogenphosphate monobasic (0.03M): methanol=4:6 (v/v) • Flow Rate: 1.5 ml/min

[3] = Chemical stability in aqueous state, 25° C., 4 weeks in complete darkness, HPLC; conditions: distilled water
Procedure: as §1
The resulting aqueous solutions were stored at 25° C. for 4 weeks in complete darkness, after which a measurement was made of the contents of the salts with resort to HPLC under the same conditions as in the solid state.

physchem = conditions: 37 °C

Row | SMILES | water content (K. F. water %) ([1]; 25% RH, 1 week storage) | water content (K. F. water %) ([1]; 60% RH, 1 week storage) | water content (K. F. water %) ([1]; 75% RH, 1 week storage) | water content (K. F. water %) ([1]; 95% RH, 1 week storage) | water content (K. F. water %) ([1]; Initial) | change in content, accelerated test [2] | HPLC content ([2]; 1 week) | HPLC content ([2]; 2 weeks) | HPLC content ([2]; 3 weeks) | HPLC content ([2]; initial) | stability in aqueous state (decomposition products, content change) [3] | hygroscopicity ([1]; relative humidity 95%) | solubility (physchem; pH 2, aqueous buffer) | solubility (physchem; pH 4, aqueous buffer) | solubility (physchem; pH 6, aqueous buffer) | solubility (physchem; pH 7, aqueous buffer) | solubility (physchem; pH 7.4, aqueous buffer) | solubility (physchem; pH 8, aqueous buffer) | solubility (physchem; water)
1 | CCOC(=O)C1=C(COCCN)NC(C)=C(C(=O)OC)C1c1ccccc1Cl (stereo not drawn) [Besylate, amlodipine besylate, reference compound] | 0.10% | 0.09% | 0.15% | 0.17% | 0.14% | virtually no changes | 99.6% | 99.4% | 99.2% | 99.6% | neither decomposition products nor content change is found |  |  |  |  |  |  |  | 
2 | CCOC(=O)C1=C(COCCN)NC(C)=C(C(=O)OC)C1c1ccccc1Cl.CCS(=O)(=O)O (stereo not drawn) [Ethanesulfonate, amlodipine ethanesulfonate] | 0.08% | 0.09% | 0.13% | 0.15% | 0.12% | virtually no changes | 99.6% | 99.6% | 99.5% | 99.7% | neither decomposition products nor content change is found | ≤ 0.5% | > 200 mg/mL | > 200 mg/mL | > 200 mg/mL | > 200 mg/mL | > 200 mg/mL | > 200 mg/mL | > 200 mg/mL
